Patent US20060211026A1, “Methods for assessing emphysema” (Roche Palo Alto LLC, priority 2005, published 2006)

Assays:
Assay type in all cases: in vivo, Sprague-Dawley rats
tropoelastin = test: Tropoelastin ELISA in homogenized lung tissue of smoke-exposed rats; details: oral daily 30 days after 8 months smoke; ATRA 3 mg/kg, R667 0.07-0.7 mg/kg; FIG. 1
Protocol: FIG. 1 depicts the amount of tropoelastin (in ng) measured in rats after treatment as set forth in Example 1(B).
(§1) (B) Adult male Sprague-Dawley rats were exposed daily to 10 cigarettes/rat for 8 months (control rats were exposed to air) to establish emphysema lesions. […] Supernatant from homogenized lung tissue was analyzed for concentration of tropoelastin by ELISA (using rabbit anti-tropoelastin; Elastin Products Co.).

[1] = tested on: gene expression in lung right lobes of 8 months smoked rats; test: Lung gene expression by Affymetrix microarray in smoke-exposed rats
Protocol: as §1
Three individual lung right lobes from each condition were processed to extract mRNA according to standard Affymetrix protocols, and samples hybridized to Affymetrix Rat Expression Set 230 microarrays. Gene expression was analyzed using the Bioconductor package (Gentleman et al., Genome Biol (2004) v. 5), and differentially expressed genes selected using ANOVA model followed by Dunnett's test.

[2] = tested on: gene expression in lung right lobes of 8 months smoked rats; test: Lung gene expression by quantitative PCR in smoke-exposed rats; details: for Adam17 gene expression relative to 8 months smoked rats / Angpt1 gene expression relative to 8 months smoked rats / Areg gene expression relative to 8 months smoked rats / Colla1 gene expression relative to 8 months smoked rats / Crabp2 gene expression relative to 8 months smoked rats / Csf2 gene expression relative to 8 months smoked rats / Cxcl1 gene expression relative to 8 months smoked rats / Cxcl2 gene expression relative to 8 months smoked rats / Cxcl5 gene expression relative to 8 months smoked rats / Cyp26a1 gene expression relative to 8 months smoked rats / EGFR gene expression relative to 8 months smoked rats / Eln gene expression relative to 8 months smoked rats / FGF7 gene expression relative to 8 months smoked rats / Flt1 gene expression relative to 8 months smoked rats / Hif1a gene expression relative to 8 months smoked rats / HpGF gene expression relative to 8 months smoked rats / Hyou1 gene expression relative to 8 months smoked rats / Il6 gene expression relative to 8 months smoked rats / Il8ra/CXCR1 gene expression relative to 8 months smoked rats / Il8rb/CXCR2 gene expression relative to 8 months smoked rats / Kdr gene expression relative to 8 months smoked rats / Mmp9 gene expression relative to 8 months smoked rats / Mmp12 gene expression relative to 8 months smoked rats / PDGFA gene expression relative to 8 months smoked rats / Pgf gene expression relative to 8 months smoked rats / Rbp1 gene expression relative to 8 months smoked rats / Serpina1 gene expression relative to 8 months smoked rats / Sftpa1 gene expression relative to 8 months smoked rats / Sftpb gene expression relative to 8 months smoked rats / Slpi gene expression relative to 8 months smoked rats / TNF gene expression relative to 8 months smoked rats / Tek gene expression relative to 8 months smoked rats / Tgfb1 gene expression relative to 8 months smoked rats / Tgfbr2 gene expression relative to 8 months smoked rats / Tgm2 gene expression relative to 8 months smoked rats / Timp3 gene expression relative to 8 months smoked rats / VEGFa gene expression relative to 8 months smoked rats: rat lung
Protocol: as §1
RNA prepared from snap-frozen lung right lobes was analyzed for gene expression by quantitative PCR, using ABI Taqman following standard procedures.

[3] = R667 0.07 mg/kg oral daily 30 days
[4] = R667 0.15 mg/kg oral daily 30 days
[5] = R667 0.7 mg/kg oral daily 30 days

## CC1=C(/C=C/C(C)=C/C=C/C(C)=C/C(=O)O)C(C)(C)CCC1 [ATRA, all-trans retinoic acid, reference compound]
tropoelastin
  Tropoelastin in lung tissue (effect of treatment): partially restored

## CC1(C)CCC(C)(C)c2cc(Cn3cccn3)c(C=Cc3ccc(C(=O)O)cc3)cc21 [R667, 4-[2-(5,5,8,8-tetramethyl-3-pyrazol-1-ylmethyl-5,6,7,8-tetrahydronaphthalen2-yl)-vinyl]-benzoic acid]
[1]; [3]
  ELN expression level from microarray, relative to the 8 months smoked rat: 2.8 fold
  VEGF expression level from microarray, relative to the 8 months smoked rat: 1.7 fold
[1]; [4]
  ELN expression level from microarray, relative to the 8 months smoked rat: 3.1 fold
  VEGF expression level from microarray, relative to the 8 months smoked rat: 1.5 fold
[1]; [5]
  ELN expression level from microarray, relative to the 8 months smoked rat: 3.8 fold
  VEGF expression level from microarray, relative to the 8 months smoked rat: 2.4 fold
[2]; [3]
  Adam17 gene expression relative to 8 months smoked rats: 3.5
  Angpt1 gene expression relative to 8 months smoked rats: 3.8
  Areg gene expression relative to 8 months smoked rats: 5.9
  Colla1 gene expression relative to 8 months smoked rats: 7.1
  Crabp2 gene expression relative to 8 months smoked rats: 2.0
  Csf2 gene expression relative to 8 months smoked rats: 1.5
  Cxcl1 gene expression relative to 8 months smoked rats: 3.3
  Cxcl2 gene expression relative to 8 months smoked rats: 2.3
  Cxcl5 gene expression relative to 8 months smoked rats: 50.1
  Cyp26a1 gene expression relative to 8 months smoked rats: 2.2
  EGFR gene expression relative to 8 months smoked rats: 4.8
  Eln gene expression relative to 8 months smoked rats: 5.6
  FGF7 gene expression relative to 8 months smoked rats: 2.1
  Flt1 gene expression relative to 8 months smoked rats: 1.7
  Hif1a gene expression relative to 8 months smoked rats: 1.7
  HpGF gene expression relative to 8 months smoked rats: 3.0
  Hyou1 gene expression relative to 8 months smoked rats: 2.7
  Il6 gene expression relative to 8 months smoked rats: 1.8
  Il8ra/CXCR1 gene expression relative to 8 months smoked rats: 3.8
  Il8rb/CXCR2 gene expression relative to 8 months smoked rats: 2.0
  Kdr gene expression relative to 8 months smoked rats: 1.3
  Mmp9 gene expression relative to 8 months smoked rats: 1.7
  Mmp12 gene expression relative to 8 months smoked rats: 4.9
  PDGFA gene expression relative to 8 months smoked rats: 4.3
  Pgf gene expression relative to 8 months smoked rats: 1.6
  Rbp1 gene expression relative to 8 months smoked rats: 2.1
  Serpina1 gene expression relative to 8 months smoked rats: 2.3
  Sftpa1 gene expression relative to 8 months smoked rats: 5.4
  Sftpb gene expression relative to 8 months smoked rats: 1.9
  Slpi gene expression relative to 8 months smoked rats: 3.6
  TNF gene expression relative to 8 months smoked rats: 3.3
  Tek gene expression relative to 8 months smoked rats: 1.4
  Tgfb1 gene expression relative to 8 months smoked rats: 1.4
  Tgfbr2 gene expression relative to 8 months smoked rats: 2.0
  Tgm2 gene expression relative to 8 months smoked rats: 16.2
  Timp3 gene expression relative to 8 months smoked rats: 3.5
  VEGFa gene expression relative to 8 months smoked rats: 1.6
[2]; [4]
  Adam17 gene expression relative to 8 months smoked rats: 3.6
  Angpt1 gene expression relative to 8 months smoked rats: 1.8
  Areg gene expression relative to 8 months smoked rats: 3.7
  Colla1 gene expression relative to 8 months smoked rats: 8.4
  Crabp2 gene expression relative to 8 months smoked rats: 1.5
  Csf2 gene expression relative to 8 months smoked rats: 1.9
  Cxcl1 gene expression relative to 8 months smoked rats: 2.9
  Cxcl2 gene expression relative to 8 months smoked rats: 1.6
  Cxcl5 gene expression relative to 8 months smoked rats: 50.0
  Cyp26a1 gene expression relative to 8 months smoked rats: 3.9
  EGFR gene expression relative to 8 months smoked rats: 3.2
  Eln gene expression relative to 8 months smoked rats: 6.1
  FGF7 gene expression relative to 8 months smoked rats: 2.1
  Flt1 gene expression relative to 8 months smoked rats: 1.8
  Hif1a gene expression relative to 8 months smoked rats: 1.4
  HpGF gene expression relative to 8 months smoked rats: 3.1
  Hyou1 gene expression relative to 8 months smoked rats: 3.3
  Il6 gene expression relative to 8 months smoked rats: 2.4
  Il8ra/CXCR1 gene expression relative to 8 months smoked rats: 4.5
  Il8rb/CXCR2 gene expression relative to 8 months smoked rats: 2.0
  Kdr gene expression relative to 8 months smoked rats: 1.9
  Mmp9 gene expression relative to 8 months smoked rats: 1.5
  Mmp12 gene expression relative to 8 months smoked rats: 5.9
  PDGFA gene expression relative to 8 months smoked rats: 2.9
  Pgf gene expression relative to 8 months smoked rats: 0.9
  Rbp1 gene expression relative to 8 months smoked rats: 3.5
  Serpina1 gene expression relative to 8 months smoked rats: 1.5
  Sftpa1 gene expression relative to 8 months smoked rats: 4.4
  Sftpb gene expression relative to 8 months smoked rats: 2.1
  Slpi gene expression relative to 8 months smoked rats: 1.6
  TNF gene expression relative to 8 months smoked rats: 4.2
  Tek gene expression relative to 8 months smoked rats: 1.3
  Tgfb1 gene expression relative to 8 months smoked rats: 2.0
  Tgfbr2 gene expression relative to 8 months smoked rats: 1.5
  Tgm2 gene expression relative to 8 months smoked rats: 28.3
  Timp3 gene expression relative to 8 months smoked rats: 2.9
  VEGFa gene expression relative to 8 months smoked rats: 2.3
[2]; [5]
  Adam17 gene expression relative to 8 months smoked rats: 7.8
  Angpt1 gene expression relative to 8 months smoked rats: 3.1
  Areg gene expression relative to 8 months smoked rats: 7.2
  Colla1 gene expression relative to 8 months smoked rats: 7.9
  Crabp2 gene expression relative to 8 months smoked rats: 1.4
  Csf2 gene expression relative to 8 months smoked rats: 2.9
  Cxcl1 gene expression relative to 8 months smoked rats: 6.5
  Cxcl2 gene expression relative to 8 months smoked rats: 3.4
  Cxcl5 gene expression relative to 8 months smoked rats: 81.6
  Cyp26a1 gene expression relative to 8 months smoked rats: 3.7
  EGFR gene expression relative to 8 months smoked rats: 4.0
  Eln gene expression relative to 8 months smoked rats: 9.4
  FGF7 gene expression relative to 8 months smoked rats: 1.6
  Flt1 gene expression relative to 8 months smoked rats: 2.6
  Hif1a gene expression relative to 8 months smoked rats: 2.0
  HpGF gene expression relative to 8 months smoked rats: 5.6
  Hyou1 gene expression relative to 8 months smoked rats: 5.8
  Il6 gene expression relative to 8 months smoked rats: 4.5
  Il8ra/CXCR1 gene expression relative to 8 months smoked rats: 4.2
  Il8rb/CXCR2 gene expression relative to 8 months smoked rats: 2.5
  Kdr gene expression relative to 8 months smoked rats: 1.7
  Mmp9 gene expression relative to 8 months smoked rats: 1.9
  Mmp12 gene expression relative to 8 months smoked rats: 7.3
  PDGFA gene expression relative to 8 months smoked rats: 4.5
  Pgf gene expression relative to 8 months smoked rats: 2.7
  Rbp1 gene expression relative to 8 months smoked rats: 3.9
  Serpina1 gene expression relative to 8 months smoked rats: 2.9
  Sftpa1 gene expression relative to 8 months smoked rats: 7.0
  Sftpb gene expression relative to 8 months smoked rats: 2.9
  Slpi gene expression relative to 8 months smoked rats: 4.4
  TNF gene expression relative to 8 months smoked rats: 4.0
  Tek gene expression relative to 8 months smoked rats: 1.3
  Tgfb1 gene expression relative to 8 months smoked rats: 3.2
  Tgfbr2 gene expression relative to 8 months smoked rats: 2.1
  Tgm2 gene expression relative to 8 months smoked rats: 24.6
  Timp3 gene expression relative to 8 months smoked rats: 4.8
  VEGFa gene expression relative to 8 months smoked rats: 2.9
[2]; rats smoked 8 months, then R667 daily 30 days
  Restoration of smoke-suppressed gene expression in lung: restore expression of these genes to near-normal levels
tropoelastin
  Tropoelastin in lung tissue (effect of treatment): partially restored
